In patent US8940324B2, “Octenidine composition” (Artan Holding AG, priority 2008, dated 2015):
“Also recorded” adds a separate entry of the source.

Experiments:
[1] = system: U373 cells; assay: Determination of cell adhesion (cell detachment assay with Methyl violet); assay type: cell-based, human; settings: for effect on cell adhesion; additives: effect on the Octenisept® induced reduction: U373, 1 hour, Octenisept® alone or 1:1 with additive 5%, 5 μl to 100 μl medium, FIG. 3
Method: The humane glioblastoma cell line U373 was cultured in Dulbecco's Modified Eagle Medium (DMEM) supplemented with 10% PCS (Gibco™), 2 mM glutamine (PPA) and 100 U/ml penicillin/streptomycin (PAA) at 37° and 5% CO2. The cells were cultivated in monolayer and passaged at 80% confluence. Before carrying out the cell adhesion experiments the cells were transferred onto 96-well plates and brought to confluence.
Cell adhesion was carried out as described in detail in the quotation (Uchide, N. and Toyoda H., (2007) J Immunol Methods, 328 (1-2): 215-9). U373 cells were incubated in 96-well plates with Octenisept® (final concentration 5% (v/v) Octenisept®, this equates 0.005% octenidine dihydrochloride) alone or with the specified additives (5% v/v) for 1 hour in glucose-free Leibovitz medium. After removing the supernatant the standardized washing procedure was executed 3 times after which PBS was added with a motor-controlled pipet which led to the detachment of non-adhesive cells. Afterward only those cells whose matrix had formed a solid connection were fixed with glutaraldehyde and after removal of the glutaraldehyde stained with Methyl violet. The precipitated stain was dissolved with an SDS buffer and the extinction was measured at 550 nm in an ELISA plate reader.
It was now examined whether this additive ensures effects which can contribute to the improvement of wound healing. U373 cells were incubated for 1 hour in Leibovitz medium with Octenisept® alone or with additives (1:1 with glucose 5% or NaCl 0.9%). In each case 5 μl of the respective solution was added to 100 μl of medium. After washing and staining of the adherent cells with crystal violet the extinction was measured at 550 nm (FIG. 2a). The extinction of the controls was set to 1. Statistical significances were determined with Bonferroni's Multiple Comparison Test (**: p<0.01, ***<0.001).
Polyalcohols form a broad compound class and it was therefore examined whether single subgroups have different effects in the adhesion test. U373 cells were incubated in Leibovitz medium with 5 μl additive to 100 μl medium in each case for 1 hour with Octenisept® alone (−) or with additives (1:1 with polyalcohol 5%, glucose, 2-deoxyglucose (2-deoxyG.), lactose, saccharose, fructose, glucuronic acid, polyethylene glycol (PEG), chondroitin-4-sulfate (ch.4-s.), chondroitin-6-sulfate (ch.-6-s.) dermatan sulfate (dermatan-s.) or dextran sulfate (dextran-s.)). After washing and staining of the adherent cells with Methyl violet the extinction was measured at 550 nm. (Bars represent the mean value±SD of two independent experiments (measured in triplicates)). The extinction of the controls was set to 1. Statistical significances were determined with Bonferroni's Multiple Comparison Test (**: p<0.01, ***<0.001).
U373 cells were incubated for one hour with Octenisept® (1:20 in medium) alone (G0) or with Octenisept® and different volumes of a 5% glucose solution (resulting final dilution 1:200-1:2 in Leibovitz medium).

[2] = Precipitation assay of Octenisept® with NaCl or carbohydrates; assay type: physicochemical; settings: equal parts Octenisept® and diluent (5%), 4° C.
Method: The stability of the solubility of the components of Octenisept® in NaCl solution as an indicator for their interaction was determined through the analysis of the precipitates. After the co-incubation of Octenisept® with equal parts of 0.9% w/v NaCl or 5% carbohydrates in sterile aqua bidest for 3, 12, 24 and 72 hours at 4° C. the solutions were centrifuged at 2500 rpm for 5 minutes and the precipitate, if existing, was analyzed with the Zeiss inverted microscope with a digital camera with the METAVIEW micro-photography documentation system.

[3] = concentration series with glucose, FIG. 4

| Compound | effect on cell adhesion; additives: effect on the Octenisept® induced reduction [1] | also measured |
| --- | --- | --- |
| O=CC[C@@H](O)[C@H](O)[C@H](O)CO [2-deoxyglucose] | improved |  |
| O=C(CO)[C@@H](O)[C@H](O)[C@H](O)CO [fructose] | improved |  |
| O=C[C@H](O)[C@@H](O)[C@H](O)[C@H](O)CO [glucose] | improved | effect of glucose addition on Octenisept® reduced cell adherence ([1]; 5% glucose solution, final dilution 1:200 or 1:100, FIG. 4): tendentially improved; optimal glucose addition, final concentration [1, 3]: 0.1%; optimal glucose addition, in the stock solution [1, 3]: 2%; optimal absolute glucose in the Octenisept solution ([1]; corresponds to dilution 1:20 of 5% glucose): 0.25% |
| O=C[C@H](O)[C@@H](O)[C@H](O)[C@H](O)C(=O)O [glucuronic acid] | improved | effect on cell adhesion; additives: effect on the Octenisept® induced reduction ([1]; listed as Glucuronic acid): positive effect |
| OC[C@H]1O[C@@H](O[C@H]2[C@H](O)[C@@H](O)C(O)O[C@@H]2CO)[C@H](O)[C@@H](O)[C@H]1O (some centres unmarked) [lactose] | improved |  |
| OC[C@H]1O[C@@](CO)(O[C@H]2O[C@H](CO)[C@@H](O)[C@H](O)[C@H]2O)[C@@H](O)[C@@H]1O [saccharose] | improved; also recorded: without impairing the effect |  |
| chondroitin sulfate |  | sediment / crystals / turbidity of Octenisept® mixed with diluent [2]: quick micro-crystalline or colloidal turbidity |
| chondroitin-4-sulfate | significantly reduced the adhesion to under the values of NaCl |  |
| chondroitin-6-sulfate | significantly reduced the adhesion to under the values of NaCl |  |
| dermatan sulfate | significantly reduced the adhesion to under the values of NaCl | sediment / crystals / turbidity of Octenisept® mixed with diluent [2]: quick micro-crystalline or colloidal turbidity |
| dextran sulfate | significantly reduced the adhesion to under the values of NaCl |  |
| heparan sulfate |  | sediment / crystals / turbidity of Octenisept® mixed with diluent [2]: quick micro-crystalline or colloidal turbidity |
| polyethylene glycol | improved | effect on cell adhesion; additives: effect on the Octenisept® induced reduction ([1]; listed as PEG): slight reduction of the positive effect |
